# Literature values as cited in patent US9775789B2, “Topical liposome compositions containing phenolic anti-inflammatory agents and their methods of preparation” (D& J ROSEE INC., priority 2012, dated 2017).
# Assays:
# [1] = test system: human skin
# [2] = in vitro; superoxide anion and hydroxyl radicals
# [3] = test system: tumor; settings: topical application and UV radiation versus controls
# [4] = test system: keratinocytes; settings: 6-week application under occlusion
# [5] = test system: cultured keratinocytes; settings: in vitro
# [6] = test system: cultured squamous carcinoma cells; settings: in vitro
# [7] = test system: keratinocytes; settings: applied during 48 hours, then simulated solar radiation (2 MED); skin biopsy
# [8] = test system: nuclear factor kappa beta (NF-κB) in normal human epidermal keratinocytes (NHEK); settings: pretreatment of keratinocytes before UVB exposure
# [9] = test system: MRSA; settings: all 53 MRSA clinical isolates
# [10] = test system: MRSA; settings: time-kill study
# [11] = test system: T. rubrum
# [12] = test system: TNF-α and INF-γ; settings: versus control; SEB intraperitoneally
# [13] = test system: atopic dermatitis (AD) type skin lesions; settings: daily topical application after allergen extract; versus vehicle
smiles,measurement,setting,value
"O=C(O[C@@H]1Cc2c(O)cc(O)cc2O[C@@H]1c1cc(O)c(O)c(O)c1)c1cc(O)c(O)c(O)c1 [EGCG, epigallocatechin gallate]",UV-induced infiltration of inflammatory leukocytes into the skin,[1]; EGCG pretreatment,inhibited
same,"UV-induced production of hydrogen peroxide, nitric oxide and lipid peroxide in both epidermis and dermis","[1]; topical application before a single UV exposure (4× MED), punch biopsies",markedly decreased
same,ROS scavenging activity,[2],superior to other tea catechins
same,tumor incidence and size,[3],significant reductions
same,epidermal thickness,[4],significant increase
same,proliferation of keratinocytes,[4]; versus vehicle-treated samples,significantly stimulated
same,effect on cultured keratinocytes,[5],dose-dependent stimulatory effect
same,action against cultured squamous carcinoma cells (apoptosis),[6],inhibitory action
same,greater increase in keratinocyte cell numbers versus vehicle-treated,[7],4 fold
same,UVB-induced activation of NFκB,[8],significant dose- and time-dependent inhibition
same,minimal inhibitory concentration (MIC),[9],32 to 128 mg/L
same,bactericidal concentration,[10]; one isolate,6 times the MIC
same,bacteriostatic concentration,[10]; one isolate,1-2 times the MIC
same,"bactericidal concentration, aqueous solution",[10]; equivalent of 6 times the MIC,~0.04%
same,susceptibility of T. rubrum compared with reference antifungals,[11],more susceptible than to flucytosine and similar to fluconazole
same,MIC,[11]; 11 clinical isolates of T. rubrum,1-16 μg per mL
same,serum levels of TNF-α and INF-γ,[12],significantly reduced
same,"clinical signs (erythema, edema, scaling and excoriation)",[13],significantly lessened
same,ear swelling,[13],significantly reduced
